Results from ChEMBL document CHEMBL4814056, “Discovery of chalcone analogues as novel NLRP3 inflammasome inhibitors with potent anti-inflammation activities” (Eur J Med Chem, 2021).
The source made the active and inactive calls. The rule behind the calls is not given here.

What was measured:
[1] = target: T1, NACHT, LRR and PYD domains-containing protein 3 (Mus musculus, UniProt Q8R4B8); experiment: Inhibition of NLRP3 in mouse J774A.1 cells infected with FLA-ST assessed as inhibition of LPS- induced IL-1beta production by ELISA; type: cell-based, J774.A1
T1 sequence (Q8R4B8 whole entry, the tested form may be a part): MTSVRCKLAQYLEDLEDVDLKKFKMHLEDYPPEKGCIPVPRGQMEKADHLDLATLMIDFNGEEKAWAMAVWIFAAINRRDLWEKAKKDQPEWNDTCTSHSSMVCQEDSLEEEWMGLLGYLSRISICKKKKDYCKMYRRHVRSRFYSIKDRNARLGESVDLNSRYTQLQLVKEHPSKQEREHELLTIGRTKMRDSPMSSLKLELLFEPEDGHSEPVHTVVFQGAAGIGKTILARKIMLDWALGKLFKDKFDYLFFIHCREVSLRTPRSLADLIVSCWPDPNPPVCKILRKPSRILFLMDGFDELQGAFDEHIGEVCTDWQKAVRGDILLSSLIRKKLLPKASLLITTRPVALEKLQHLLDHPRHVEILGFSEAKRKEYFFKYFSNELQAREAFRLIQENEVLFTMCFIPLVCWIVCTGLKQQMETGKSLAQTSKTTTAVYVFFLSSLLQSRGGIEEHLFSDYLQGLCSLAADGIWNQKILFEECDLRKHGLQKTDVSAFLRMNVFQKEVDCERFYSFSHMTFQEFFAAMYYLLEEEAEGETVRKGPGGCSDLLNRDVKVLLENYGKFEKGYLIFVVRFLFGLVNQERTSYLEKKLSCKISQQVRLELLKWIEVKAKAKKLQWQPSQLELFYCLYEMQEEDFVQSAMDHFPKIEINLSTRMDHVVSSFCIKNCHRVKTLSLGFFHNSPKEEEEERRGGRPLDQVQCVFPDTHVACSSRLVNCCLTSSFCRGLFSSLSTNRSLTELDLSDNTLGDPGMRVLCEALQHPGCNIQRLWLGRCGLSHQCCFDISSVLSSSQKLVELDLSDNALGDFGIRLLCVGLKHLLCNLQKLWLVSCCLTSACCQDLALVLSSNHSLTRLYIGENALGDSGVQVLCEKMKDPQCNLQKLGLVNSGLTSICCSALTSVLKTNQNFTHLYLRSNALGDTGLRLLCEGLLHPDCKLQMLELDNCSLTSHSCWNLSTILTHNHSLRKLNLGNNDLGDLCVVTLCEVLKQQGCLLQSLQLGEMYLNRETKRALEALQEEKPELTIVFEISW

[2] = Solubility of compound; type: physicochemical
[3] = target: T1, NACHT, LRR and PYD domains-containing protein 3; experiment: (§1) Inhibition of NLRP3 inflammasome activation in LPS/nigericin-treated mouse BMDM cells assessed as inhibition of LPS and nigericin-induced IL-1beta production pre-treated for 1 hr measured after 1 hr of stimulation by ELISA; type: cell-based
J774.A1 [4] = experiment: Inhibition of mitochondrial reactive oxygen species generation in LPS/nigericin-induced mouse J774.A1 cells pre-treated for 1 hr at 1 to 5 uM measured after 1 hr of stimulation by MitoSOX Red fluorescence microplate-reader relative to control; type: functional; conditions: dose 1-5 µM, time 2.0 hrs
Mus musculus [5] = experiment: Anti-colitis activity against DSS-induced colitis C57BL/6 mouse model assessed as reduction in colon length treated orally once daily for 14 days started from day 3 post DSS-challenge; type: functional, organism-based; conditions: dose 25-50 mg/kg, time 14.0 day
[6] = target: NACHT, LRR and PYD domains-containing protein 3 (Mus musculus) (UniProt Q8R4B8); experiment: Inhibition of NLRP3 inflammasome activation in LPS/nigericin-treated mouse J774A.1 cells assessed as blockade of IL-1beta secretion pre-treated for 1 hr measured after 1 hr of stimulation by Western blot analysis; conditions: J774.A1, dose 1-5 µM, time 2.0 hrs
NACHT, LRR and PYD domains-containing protein 3 (Mus musculus), sequence (Q8R4B8 whole entry, the tested form may be a part): as above

[7] = Stability assessed as glutathione reactivity of compound incubated for 24 hrs; type: physicochemical
J774.A1 [8] = experiment: Anti-pyroptosis activity against LPS/nigericin-induced mouse […] cells pre-treated for 1 hr at 1 to 5 uM measured after 1 hr of stimulation; type: functional, cell-based; conditions: dose 1-5 µM
Mus musculus [9] = experiment: Antiinflammatory activity in po dosed LPS-induced sepsis C57BL/6 mouse model assessed as reduction in IL-1beta secretion in peritonial fluid measured after 6 hrs by ELISA; type: functional, organism-based; conditions: dose 25-50 mg/kg
[10] = target: NACHT, LRR and PYD domains-containing protein 3 (Mus musculus) (UniProt Q8R4B8); experiment: Inhibition of NLRP3 inflammasome activation in LPS/nigericin-treated mouse J774A.1 cells assessed as effect on pro-caspase-1 pre-treated for 1 hr at 1 to 5 uM measured after 1 hr of stimulation by Western blot analysis; conditions: J774.A1, dose 1-5 µM
J774.A1 [11] = experiment: Inhibition of reactive oxygen species generation in LPS/nigericin-induced mouse J774.A1 cells pre-treated for 1 hr at 1 to 5 uM measured after 1 hr of stimulation by fluorescence microplate-reader relative to control; type: functional, cell-based; conditions: dose 1-5 µM, time 2.0 hrs
[12] = target: NACHT, LRR and PYD domains-containing protein 3 (Mus musculus) (UniProt Q8R4B8); experiment: Inhibition of NLRP3 inflammasome activation in LPS/nigericin-treated mouse J774A.1 cells assessed as effect on […] in cell lysate pre-treated for 1 hr at 1 to 5 uM measured after 1 hr of stimulation by Western blot analysis; type: subcellular; conditions: J774.A1, dose 1-5 µM, time 2.0 hrs
J774.A1 [13] = experiment: Cytotoxicity against mouse J774A.1 cells assessed as reduction in cell viability at 24 hrs by CCK8 assay; type: cell-based; conditions: j774.a1, 24 h
J774.A1 [14] = experiment: Inhibition of IL-1 beta release in LPS/nigericin-induced mouse J774.A1 cells pre-treated for 1 hr at 1 to 5 uM measured after 1 hr of stimulation by Western blot analysis; type: functional; conditions: dose 1-5 µM, time 2.0 hrs
Mus musculus [15] = experiment: Anti-colitis activity against DSS-induced colitis C57BL/6 mouse model assessed as reduction in IL-1 beta in colonic tissue treated orally once daily for 14 days started from day 3 post DSS-challenge by ELISA relative to control; type: functional, organism-based; conditions: dose 25-50 mg/kg, time 14.0 day
[16] = target: NACHT, LRR and PYD domains-containing protein 3 (Mus musculus) (UniProt Q8R4B8); experiment: Inhibition of NLRP3 inflammasome activation in LPS/nigericin-treated mouse J774A.1 cells assessed as blockade of caspase 1 p20 maturation pre-treated for 1 hr measured after 1 hr of stimulation by Western blot analysis; conditions: J774.A1, dose 1-5 µM, time 2.0 hrs
J774.A1 [17] = experiment: Cytotoxicity against mouse J774A.1 cells assessed as reduction in cell viability at 2 hrs by CellTiter 96 AQueous One solution cell proliferation assay; type: cell-based; conditions: j774.a1, 2 h
[18] = target: T2, Interferon-inducible protein AIM2 (Mus musculus) (UniProt Q91VJ1); experiment: Inhibition of AIM2 inflammasome activation in LPS-induced mouse […] cells infected with […] pre-treated for 1 hr at 1 to 5 uM measured after 1 hr of stimulation; conditions: J774.A1, dose 1-5 µM, time 2.0 hrs
T2 sequence (whole entry): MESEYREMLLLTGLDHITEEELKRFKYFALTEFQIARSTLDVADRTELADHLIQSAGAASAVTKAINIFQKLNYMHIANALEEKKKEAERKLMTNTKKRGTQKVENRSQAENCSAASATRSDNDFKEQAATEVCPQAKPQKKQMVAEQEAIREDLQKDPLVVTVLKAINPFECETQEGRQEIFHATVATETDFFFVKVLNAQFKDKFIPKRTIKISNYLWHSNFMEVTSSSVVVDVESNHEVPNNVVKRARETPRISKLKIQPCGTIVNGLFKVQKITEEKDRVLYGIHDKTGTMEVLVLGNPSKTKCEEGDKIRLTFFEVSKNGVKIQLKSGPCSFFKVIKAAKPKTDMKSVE

[19] = target: NACHT, LRR and PYD domains-containing protein 3 (Mus musculus) (UniProt Q8R4B8); experiment: as §1; type: cell-based; conditions: dose 1-5 µM, time 2.0 hrs
[20] = Selectivity index, ratio of TC50 for cytotoxicity against human HEK293T cells to IC50 for inhibition of NLRP3 in mouse J774A.1 cells
[21] = target: NACHT, LRR and PYD domains-containing protein 3 (Mus musculus) (UniProt Q8R4B8); experiment: Inhibition of NLRP3 inflammasome activation in LPS/nigericin-treated mouse J774A.1 cells assessed as effect on pro-IL-1-beta pre-treated for 1 hr at 1 to 5 uM measured after 1 hr of stimulation by Western blot analysis; conditions: J774.A1, dose 1-5 µM, time 2.0 hrs
[22] = target: NLR family CARD domain-containing protein 4 (Mus musculus) (UniProt Q3UP24); experiment: Inhibition of NLRC4 inflammasome activation in LPS-induced mouse […] cells infected with […] pre-treated for 1 hr at 1 to 5 uM measured after 1 hr of stimulation; conditions: J774.A1, dose 1-5 µM, time 2.0 hrs
NLR family CARD domain-containing protein 4 (Mus musculus), sequence (Q3UP24 whole entry, the tested form may be a part): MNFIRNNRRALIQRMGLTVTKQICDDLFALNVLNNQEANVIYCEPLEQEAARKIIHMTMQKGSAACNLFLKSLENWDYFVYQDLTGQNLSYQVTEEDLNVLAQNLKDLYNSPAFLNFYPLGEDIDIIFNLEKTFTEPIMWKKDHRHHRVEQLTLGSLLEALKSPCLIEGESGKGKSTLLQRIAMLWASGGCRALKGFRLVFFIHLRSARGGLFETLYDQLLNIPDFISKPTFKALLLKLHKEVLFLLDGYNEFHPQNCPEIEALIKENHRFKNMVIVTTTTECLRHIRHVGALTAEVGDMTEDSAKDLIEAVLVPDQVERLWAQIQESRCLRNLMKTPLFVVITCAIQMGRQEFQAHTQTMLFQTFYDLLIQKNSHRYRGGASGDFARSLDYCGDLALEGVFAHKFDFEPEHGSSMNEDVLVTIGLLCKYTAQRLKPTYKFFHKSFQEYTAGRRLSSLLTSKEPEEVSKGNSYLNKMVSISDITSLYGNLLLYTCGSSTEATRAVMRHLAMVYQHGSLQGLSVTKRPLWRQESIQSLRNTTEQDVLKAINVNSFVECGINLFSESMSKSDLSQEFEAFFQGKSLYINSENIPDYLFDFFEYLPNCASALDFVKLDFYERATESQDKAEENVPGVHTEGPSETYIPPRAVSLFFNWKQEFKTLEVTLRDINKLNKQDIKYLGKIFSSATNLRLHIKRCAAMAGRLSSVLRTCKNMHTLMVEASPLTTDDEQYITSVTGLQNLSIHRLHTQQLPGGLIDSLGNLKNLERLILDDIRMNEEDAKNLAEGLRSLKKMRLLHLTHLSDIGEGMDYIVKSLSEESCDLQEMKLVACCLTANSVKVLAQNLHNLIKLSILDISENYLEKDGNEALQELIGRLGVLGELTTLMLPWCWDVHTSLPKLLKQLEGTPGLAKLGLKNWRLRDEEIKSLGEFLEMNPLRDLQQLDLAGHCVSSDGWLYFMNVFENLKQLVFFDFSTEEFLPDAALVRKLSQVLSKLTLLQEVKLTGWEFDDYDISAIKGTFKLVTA

Mus musculus [23] = experiment: Anti-colitis activity against DSS-induced colitis C57BL/6 mouse model assessed as reduction in fecal occult blood treated orally once daily for 14 days started from day 3 post DSS-challenge; type: functional, organism-based; conditions: dose 25-50 mg/kg, time 14.0 day
Mus musculus [24] = experiment: Antiinflammatory activity in po dosed LPS-induced sepsis C57BL/6 mouse model assessed as reduction in IL-1beta secretion in serum measured after 6 hrs by ELISA; type: functional, organism-based; conditions: dose 25-50 mg/kg
[25] = Cytotoxicity against human HEK293T cells assessed as reduction in cell viability at 24 hrs by CCK8 assay; type: cell-based, HEK-293T; conditions: read-out: TD50
J774.A1 [26] = experiment: Inhibition of reactive oxygen species generation in LPS/nigericin-induced mouse J774.A1 cells pre-treated for 1 hr at 1 to 5 uM measured after 1 hr of stimulation by DCFH-DA staining-based method relative to control; type: functional, cell-based; conditions: dose 1-5 µM, time 2.0 hrs
[27] = target: NACHT, LRR and PYD domains-containing protein 3 (Mus musculus) (UniProt Q8R4B8); experiment: Inhibition of NLRP3 inflammasome activation in LPS/nigericin-treated mouse J774A.1 cells assessed as inhibition of LPS and nigericin-induced IL-1beta production pre-treated for 1 hr measured after 1 hr of stimulation by ELISA; conditions: J774.A1, dose 1-5 µM, time 2.0 hrs

Structure (SMILES): COc1c(C)cc(/C=C/C(=O)c2ccc(NC(=O)Nc3ccc(C)cc3)cc2)cc1C
- IC50 [1]: 38.7 µM

Structure (SMILES): CSc1ccc(C(=O)/C=C/c2ccc(O)c(C)c2)cc1
- IC50 [1]: 8.8 µM

Structure (SMILES): CSc1ccc(C(=O)/C=C/c2ccc(O)c(O)c2)cc1
- IC50 [1]: 1.6 µM
- solubility [2]: Insoluble

Structure (SMILES): CSc1ccc(C(=O)/C=C/c2ccc(O)cc2)cc1
- IC50 [1]: 14.6 µM

Structure (SMILES): CSc1ccc(C(=O)/C=C/c2ccc(C(=O)O)cc2)cc1
- IC50 [1]: 3.5 µM

Structure (SMILES): CCCNC(=O)Oc1c(C)cc(/C=C/C(=O)c2ccc(SC)cc2)cc1C
- IC50 [1]: 22.3 µM

Structure (SMILES): Cc1ccc(-c2ccc(C(=O)/C=C/c3cc(C)c(O)c(C)c3)cc2)s1
- IC50 [1]: > 40 µM

Structure (SMILES): CSc1ccc(C(=O)/C=C/c2ccc(O)cc2F)cc1
- IC50 [1]: 12.7 µM

Structure (SMILES): CS(=O)(=O)CCC#N [DAPANSUTRILE]
- IC50 [1]: 0.1 µM

Structure (SMILES): Cc1cc(/C=C/C(=O)c2ccc(NS(=O)(=O)c3ccc(F)cc3)cc2)cc(C)c1O
- IC50 [1]: 5 µM

Structure (SMILES): COc1cc(/C=C/C(=O)c2ccc(SC)cc2)ccc1O
- IC50 [1]: 10 µM

Structure (SMILES): O=C(O)c1ccc(/C=C2\SC(=S)N(Cc3cccc(C(F)(F)F)c3)C2=O)cc1
- IC50 [3]: 1 µM

Structure (SMILES): Cc1cc(/C=C/C(=O)c2ccc(S(C)(=O)=O)cc2)cc(C)c1O
- IC50 [1]: 12.9 µM

Structure (SMILES): COc1cc(/C=C/C(=O)c2ccc(SC)cc2)cc(OC)c1O
- IC50 [1]: > 40 µM

Structure (SMILES): C=CC(=O)Nc1ccc(C(=O)/C=C/c2cc(C)c(O)c(C)c2)cc1
- IC50 [1]: 1.3 µM
- inhibition (J774.A1 [4]): Active
- Activity (Mus musculus [5]): Active
- inhibition [6]: inactive
- Stabilty [7]: Stable
- Activity (J774.A1 [8]): Active
- Activity (Mus musculus [9]): Dose-Dependent Effect
- Activity [10]: inactive
- inhibition (J774.A1 [11]): Active
- inhibition [12]: inactive
- Activity (J774.A1 [13]): Toxic
- inhibition (J774.A1 [14]): Active
- Activity (Mus musculus [15]): Active
- inhibition [16]: Dose-Dependent Effect
- Activity (J774.A1 [17]): Non-Toxic
- inhibition [18]: inactive
- inhibition [19]: Dose-Dependent Effect
- Selectivity Index [20]: 119.7
- inhibition [21]: inactive
- inhibition [22]: inactive
- Activity (Mus musculus [23]): Active
- Activity (Mus musculus [24]): Dose-Dependent Effect
- CC50 at 24 h [25]: 156 µM
- inhibition (J774.A1 [26]): Active
- inhibition [27]: Dose-Dependent Effect

Structure (SMILES): COc1c(C)cc(/C=C/C(=O)c2ccc(SC)cc2)cc1C
- IC50 [1]: 49.5 µM

Structure (SMILES): Cc1cc(/C=C/C(=O)c2ccc(NS(=O)(=O)NC(C)C)cc2)cc(C)c1O
- IC50 [1]: 3.4 µM

Structure (SMILES): Cc1cc(/C=C/C(=O)c2ccc(F)cc2)cc(C)c1O
- IC50 [1]: 12.3 µM

Structure (SMILES): CSc1ccc(C(=O)/C=C/c2cc(C)c(OCC(=O)O)c(C)c2)cc1
- IC50 [1]: > 40 µM

Structure (SMILES): Cc1cc(/C=C/C(=O)c2ccc(-c3ccccc3)cc2)cc(C)c1O
- IC50 [1]: 29.4 µM

Structure (SMILES): Cc1cc(/C=C/C(=O)c2ccc(Cl)cc2)cc(C)c1O
- IC50 [1]: 3.9 µM
